Test results: patent publication US10597388B2, “Pyridazinone herbicides” (FMC CORPORATION, priority 2014, dated 2020)

What was measured:
Experiment in all cases: Test E greenhouse herbicide test, pre- and postemergence
Assay type in all cases: in vivo
Conditions in all cases: Preemergence
[1] = tested on: arrowleaf sida (Sida rhombifolia)
In short: (§1)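 Herbicidal effect was judged by eye relative to untreated plants 14 to 21 d after spraying, using 0 for no effect and 100 for complete control. Preemergence sprays went onto freshly seeded silt loam; postemergence sprays onto 2–18 cm seedlings.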

[2] = tested on: barnyardgrass (Echinochloa crus-galli)
In short: as §1

[3] = tested on: beggarticks (hairy beggarticks, Bidens pilosa)
In short: as §1

[4] = tested on: crabgrass, large (large crabgrass, Digitaria sanguinalis)
In short: as §1

[5] = tested on: field bindweed (Convolvulus arvensis)
In short: as §1

[6] = tested on: foxtail, giant (giant foxtail, Setaria faberii)
In short: as §1

[7] = tested on: goosegrass (Eleusine indica)
In short: as §1

[8] = tested on: johnsongrass (Sorghum halepense)
In short: as §1

kochia (Kochia scoparia) = tested on: kochia (Kochia scoparia)
In short: as §1

[9] = tested on: momingglory (Ipomoea coccinea)
In short: as §1

[10] = tested on: nightshade (eastern black nightshade, Solanum ptycanthum)
In short: as §1

[11] = tested on: nutsedge, yellow (yellow nutsedge, Cyperus esculentus)
In short: as §1

[12] = tested on: panicum, fall (fall panicum, Panicum dichotomiflorum)
In short: as §1

[13] = tested on: ragweed (common ragweed, Ambrosia elatior)
In short: as §1

[14] = tested on: sandbur (southem sandbur, Cenchrus echinatus)
In short: as §1

[15] = tested on: surinam grass (Brachiaria decumbens)
In short: as §1

[16] = tested on: velvetleaf (Abutilon theophrasti)
In short: as §1

[17] = 62 g ai/ha, scale 0 to 100 (0 no effect, 100 complete control)
[18] = 31 g ai/ha, scale 0 to 100, 0 no effect, 100 complete control
[19] = 125 g ai/ha, visual, scale 0 no effect to 100 complete control
[20] = 250 g ai/ha, visual, scale 0 no effect to 100 complete control
[21] = 125 g ai/ha, scale 0 to 100 (0 no effect, 100 complete control)

Cc1ccc2ccccc2c1-c1c(O)c(I)nn(C)c1=O [Compound 29]
Plant response rating, Arrowleaf Sida [1, 17]: 90 | Plant response rating, Arrowleaf Sida [1, 18]: 70 | Plant response rating, Arrowleaf Sida [1, 19]: 98 | Plant response rating, Arrowleaf Sida [1, 20]: 98 | Plant response rating, Barnyardgrass [2, 17]: 25 | Plant response rating, Barnyardgrass [2, 18]: 0 | Plant response rating, Barnyardgrass [2, 19]: 65 | Plant response rating, Barnyardgrass [2, 20]: 90 | Plant response rating, Beggarticks [3, 17]: 98 | Plant response rating, Beggarticks [3, 18]: 80 | Plant response rating, Beggarticks [3, 19]: 100 | Plant response rating, Beggarticks [3, 20]: 100 | Plant response rating, Crabgrass, Large [4, 17]: 25 | Plant response rating, Crabgrass, Large [4, 18]: 0 | Plant response rating, Crabgrass, Large [4, 19]: 40 | Plant response rating, Crabgrass, Large [4, 20]: 65 | Plant response rating, Field Bindweed [5, 17]: 90 | Plant response rating, Field Bindweed [5, 18]: 80 | Plant response rating, Field Bindweed [5, 19]: 95 | Plant response rating, Field Bindweed [5, 20]: 98 | Plant response rating, Foxtail, Giant [6, 17]: 80 | Plant response rating, Foxtail, Giant [6, 18]: 70 | Plant response rating, Foxtail, Giant [6, 19]: 95 | Plant response rating, Foxtail, Giant [6, 20]: 98 | Plant response rating, Goosegrass [7, 17]: 20 | Plant response rating, Goosegrass [7, 18]: 0 | Plant response rating, Goosegrass [7, 19]: 50 | Plant response rating, Goosegrass [7, 20]: 90 | Plant response rating, Johnsongrass [8, 17]: 70 | Plant response rating, Johnsongrass [8, 18]: 70 | Plant response rating, Johnsongrass [8, 19]: 65 | Plant response rating, Johnsongrass [8, 20]: 100 | Plant response rating, Kochia (kochia (Kochia scoparia); [17]): 0 | Plant response rating, Kochia (kochia (Kochia scoparia); [18]): 0 | Plant response rating, Kochia (kochia (Kochia scoparia); [19]): 25 | Plant response rating, Kochia (kochia (Kochia scoparia); [20]): 70 | Plant response rating, Morningglory [9, 17]: 65 | Plant response rating, Morningglory [9, 21]: 80 | Plant response rating, Morningglory [9, 18]: 35 | Plant response rating, Morningglory [9, 20]: 95 | Plant response rating, Nightshade [10, 17]: 70 | Plant response rating, Nightshade [10, 21]: 85 | Plant response rating, Nightshade [10, 18]: 5 | Plant response rating, Nightshade [10, 20]: 90 | Plant response rating, Nutsedge, Yellow [11, 17]: 0 | Plant response rating, Nutsedge, Yellow [11, 21]: 30 | Plant response rating, Nutsedge, Yellow [11, 18]: 0 | Plant response rating, Nutsedge, Yellow [11, 20]: 70 | Plant response rating, Panicum, Fall [12, 17]: 95 | Plant response rating, Panicum, Fall [12, 21]: 98 | Plant response rating, Panicum, Fall [12, 18]: 85 | Plant response rating, Panicum, Fall [12, 20]: 98 | Plant response rating, Ragweed [13, 17]: 85 | Plant response rating, Ragweed [13, 21]: 70 | Plant response rating, Ragweed [13, 18]: 90 | Plant response rating, Ragweed [13, 20]: 98 | Plant response rating, Sandbur [14, 17]: 75 | Plant response rating, Sandbur [14, 21]: 90 | Plant response rating, Sandbur [14, 18]: 75 | Plant response rating, Sandbur [14, 20]: 90 | Plant response rating, Surinam Grass [15, 17]: 95 | Plant response rating, Surinam Grass [15, 21]: 95 | Plant response rating, Surinam Grass [15, 18]: 75 | Plant response rating, Surinam Grass [15, 20]: 100 | Plant response rating, Velvetleaf [16, 17]: 95 | Plant response rating, Velvetleaf [16, 21]: 100 | Plant response rating, Velvetleaf [16, 18]: 70 | Plant response rating, Velvetleaf [16, 20]: 100

Cc1cc(C)c2ccccc2c1-c1c(O)c(C)nn(C)c1=O [Compound 21]
Plant response rating, Arrowleaf Sida [1, 17]: 0 | Plant response rating, Arrowleaf Sida [1, 18]: 0 | Plant response rating, Arrowleaf Sida [1, 19]: 50 | Plant response rating, Barnyardgrass [2, 17]: 70 | Plant response rating, Barnyardgrass [2, 18]: 40 | Plant response rating, Barnyardgrass [2, 19]: 90 | Plant response rating, Beggarticks [3, 17]: 100 | Plant response rating, Beggarticks [3, 18]: 100 | Plant response rating, Beggarticks [3, 19]: 100 | Plant response rating, Crabgrass, Large [4, 17]: 85 | Plant response rating, Crabgrass, Large [4, 18]: 65 | Plant response rating, Crabgrass, Large [4, 19]: 100 | Plant response rating, Field Bindweed [5, 17]: 95 | Plant response rating, Field Bindweed [5, 18]: 35 | Plant response rating, Field Bindweed [5, 19]: 98 | Plant response rating, Foxtail, Giant [6, 17]: 98 | Plant response rating, Foxtail, Giant [6, 18]: 95 | Plant response rating, Foxtail, Giant [6, 19]: 100 | Plant response rating, Goosegrass [7, 17]: 95 | Plant response rating, Goosegrass [7, 18]: 90 | Plant response rating, Goosegrass [7, 19]: 95 | Plant response rating, Johnsongrass [8, 17]: 20 | Plant response rating, Johnsongrass [8, 19]: 60 | Plant response rating, Kochia (kochia (Kochia scoparia); [17]): 0 | Plant response rating, Kochia (kochia (Kochia scoparia); [18]): 0 | Plant response rating, Kochia (kochia (Kochia scoparia); [19]): 65 | Plant response rating, Morningglory [9, 17]: 98 | Plant response rating, Morningglory [9, 21]: 100 | Plant response rating, Morningglory [9, 18]: 90 | Plant response rating, Nutsedge, Yellow [11, 17]: 75 | Plant response rating, Nutsedge, Yellow [11, 21]: 80 | Plant response rating, Nutsedge, Yellow [11, 18]: 0 | Plant response rating, Panicum, Fall [12, 17]: 100 | Plant response rating, Panicum, Fall [12, 21]: 100 | Plant response rating, Panicum, Fall [12, 18]: 100 | Plant response rating, Ragweed [13, 17]: 98 | Plant response rating, Ragweed [13, 21]: 100 | Plant response rating, Ragweed [13, 18]: 95 | Plant response rating, Sandbur [14, 17]: 80 | Plant response rating, Sandbur [14, 21]: 90 | Plant response rating, Sandbur [14, 18]: 80 | Plant response rating, Surinam Grass [15, 17]: 100 | Plant response rating, Surinam Grass [15, 21]: 100 | Plant response rating, Surinam Grass [15, 18]: 95 | Plant response rating, Velvetleaf [16, 17]: 90 | Plant response rating, Velvetleaf [16, 21]: 90 | Plant response rating, Velvetleaf [16, 18]: 80
